What was measured:
[1] = tested on: A. baumannii RUH875; assay: SYTOX Green membrane permeabilization assay; format: cell-based, Acinetobacter baumannii; conditions: RPMI, 1 μM SYTOX Green; for Concentrations inducing membrane permeabilization / SYTOX uptake: 90 min, 37 °C
Protocol: (§1) Control samples were exposed to RPMI only. As a positive control, heat-killed bacteria were incubated at 95 °C for 10 min to induce maximum membrane permeabilization. Fluorescence (excitation: 485 nm, emission: 520 nm) was monitored every minute for 90 min at 37 °C using a […] plate reader (Ortenberg, Germany), with peptides and positive controls added after the third cycle. Background fluorescence (SYTOX Green alone) was subtracted from all values. All assays were performed in triplicate and repeated twice independently.

[2] = tested on: S. aureus JAR060131; assay: SYTOX Green membrane permeabilization assay; format: cell-based, Staphylococcus aureus
Protocol: as §1

[3] = tested on: K. pneumoniae LUH15104; format: cell-based
Protocol: (§2) The bacterial strains used in this study included S. aureus JAR060131 [54] and the MDR ESKAPE pathogens Enterococcus faecium LUH15122, S. aureus LUH14616, Klebsiella pneumoniae LUH15104, A. baumannii RUH875 [55], Pseudomonas aeruginosa LUH15103, Enterobacter cloacae LUH15114, and the colistin-resistant Escherichia coli LUH15117. Before each experiment, bacteria from frozen stocks were cultured at 37 °C for 18–24 h on sheep blood agar plates (BioMérieux, Marcy-l’Étoile, France). All strains were then cultured from colonies either in tryptic soy broth (TSB; Oxoid, Basingstoke, UK) for A. baumannii, S. aureus, and E. faecium, or in brain heart infusion broth (BHI; Oxoid) for K. pneumoniae, P. aeruginosa, E. cloacae, and E. coli at 37 °C with shaking at 120 rpm for 18–24 h. Subsequently, bacteria were cultured to mid-logarithmic phase in the media described above at 37 °C with shaking at 120 rpm for 3 h. Bacteria were then washed twice with PBS and diluted to the required inoculum suspension concentration in Roswell Park Memorial Institute (RPMI)-1640 medium containing 20 mM HEPES and L-glutamine but without sodium bicarbonate (Sigma-Aldrich; hereafter referred to as RPMI), based on optical density at 620 nm. RPMI was selected because it supports bacterial growth without impairing AMP activity.
(§3) Bactericidal activity was assessed as described by de Breij et al.. Briefly, mid-logarithmic phase bacterial cultures were diluted to a final concentration of 1 × 10^7 colony-forming units (CFU)/mL in RPMI. Then, 10 µL was added to a final volume of 100 µL in RPMI (final concentration: 1 × 10^6 CFU/mL). Cultures were exposed to peptides either in RPMI or RPMI supplemented with 50% (v/v) human plasma (hereafter referred to as 50% plasma), obtained from four healthy volunteers after informed consent, frozen after collection, and pooled (Sanquin, Amsterdam, The Netherlands). Assays were performed in duplicate using round-bottom polypropylene microtiter plates (Costar, Arlington, VA, USA) and repeated three times. In the initial screening phase (Table 1, Table 2 and Table S1), peptide solutions of 1, 10, and 100 μM (final concentration) were tested against A. baumannii RUH875 and S. aureus JAR060131 in RPMI and in 50% plasma. After this selection process, two lead candidates, their RI variants, and reference peptides were tested with a final concentration range of 0.12 to 120 µM (two-fold dilutions) in RPMI and in 50% plasma (Table 3). The peptides were also tested against ESKAPE pathogens, with Synthetic Antimicrobial and Antibiofilm Peptide (SAAP)-148 as a reference peptide (Table 4).RPMI or 50% plasma served as no-treatment controls. After 2 and 18 h of incubation at 37 °C with shaking at 120 rpm in a humidified environment, the numbers of viable bacteria were quantified. Bactericidal activity was expressed as the lethal concentration 99.9% (LC99.9), defined as the lowest peptide concentration that killed ≥99.9% of bacteria within 2 h (LC99.9_2h) or 18 h (LC99.9_18h) compared to the initial inoculum.

[4] = tested on: S. aureus JAR060131; format: cell-based
Protocol: as §2, §3

[5] = tested on: E. coli LUH15117; format: cell-based
Protocol: as §2, §3

[6] = tested on: E. cloacae LUH15114; format: cell-based
Protocol: as §2, §3

[7] = tested on: S. aureus LUH14616; format: cell-based
Protocol: as §2, §3

[8] = tested on: P. aeruginosa LUH15103; format: cell-based
Protocol: as §2, §3

[9] = tested on: A. baumannii RUH875; format: cell-based
Protocol: as §2, §3

[10] = tested on: E. faecium LUH15122; format: cell-based
Protocol: as §2, §3

[11] = tested on: MDR ESKAPE pathogens; assay: Bactericidal activity (LC99.9), statements for the whole panel; format: cell-based
Protocol: as §2, §3

[12] = 50% plasma, 2 h, median of three independent experiments

Ac-KRWVKIAKKWWRLL-NH2 [GDST-038]
SYTOX fluorescence intensity, A. baumannii ([1]; 1- and 2-fold the LC99.9_2h concentrations, over 90 min): fluorescence levels similar to heat-killed controls | Concentrations inducing membrane permeabilization / SYTOX uptake [1]: 0.47 µM | Time to rise in SYTOX fluorescence intensity after peptide addition, S. aureus ([2]; at both sublethal and lethal concentrations): ≤ 1 min | LC99.9 K. pneumoniae LUH15104 50% Plasma 2 h ([3]; LUH15104, 2 h): 7.5 µM | LC99.9 K. pneumoniae LUH15104 RPMI 2 h ([3]; LUH15104, 2 h): 3.75 µM | LC99.9 K. pneumoniae LUH15104 50% Plasma 18 h ([3]; LUH15104, 18 h): 3.75 µM | LC99.9 K. pneumoniae LUH15104 RPMI 18 h ([3]; LUH15104, 18 h): 3.75 µM | LC99.9 S. aureus JAR060131 50% Plasma 2 h [4, 12]: 1.88 µM | LC99.9 S. aureus JAR060131 RPMI 2 h ([4]; JAR060131, 2 h): 0.94 µM | LC99.9 S. aureus JAR060131 50% Plasma 18 h ([4]; JAR060131, 18 h): 0.94 µM | LC99.9 E. coli LUH15117 RPMI 2 h ([5]; LUH15117, 2 h): 0.94 µM | LC99.9 E. coli LUH15117 RPMI 18 h ([5]; colistin-resistant strain, RPMI, 18 h, median of three independent experiments): 1.88 µM | LC99.9 E. cloacae LUH15114 50% Plasma 18 h ([6]; 50% plasma, 18 h, median of three independent experiments): 1.88 µM | LC99.9 E. cloacae LUH15114 50% Plasma 2 h ([6]; LUH15114, 2 h): 60 µM | LC99.9 E. cloacae LUH15114 RPMI 2 h ([6]; LUH15114, 2 h): 3.75 µM | LC99.9 E. cloacae LUH15114 RPMI 18 h ([6]; RPMI, 18 h, median of three independent experiments): 1.88 µM | LC99.9 S. aureus LUH14616 50% Plasma 2 h ([7]; LUH14616, 2 h): 7.5 µM | LC99.9 S. aureus LUH14616 RPMI 2 h ([7]; LUH14616, 2 h): 0.94 µM | LC99.9 S. aureus LUH14616 50% Plasma 18 h ([7]; LUH14616, 18 h): 0.94 µM | LC99.9 S. aureus LUH14616 RPMI 18 h ([7]; LUH14616, 18 h): 0.94 µM | LC99.9 P. aeruginosa LUH15103 50% Plasma 2 h ([8]; LUH15103, 2 h): 15 µM | LC99.9 P. aeruginosa LUH15103 RPMI 2 h ([8]; LUH15103, 2 h): 7.5 µM | LC99.9 P. aeruginosa LUH15103 50% Plasma 18 h ([8]; LUH15103, 18 h): 15 µM | LC99.9 P. aeruginosa LUH15103 RPMI 18 h ([8]; LUH15103, 18 h): 3.75 µM | LC99.9 A. baumannii RUH875 50% Plasma 2 h ([9]; RUH875, 2 h): 0.94 µM | LC99.9 A. baumannii RUH875 50% Plasma 18 h ([9]; RUH875, 18 h): 0.47 µM | LC99.9 E. faecium LUH15122 50% Plasma 2 h [10, 12]: 1.88 µM | LC99.9 E. faecium LUH15122 50% Plasma 18 h ([10]; LUH15122, 18 h): 7.5 µM | LC99.9 E. faecium LUH15122 RPMI 18 h ([10]; LUH15122, 18 h): 0.94 µM | LC99.9 E. faecium LUH15122 RPMI 2 h ([10]; RPMI, 2 h, median of three independent experiments): 1.88 µM | Concentrations required for E. cloacae, S. aureus and P. aeruginosa in 50% plasma within 2 h ([11]; 50% plasma, 2 h, range over the three species): 30 to 60 µM

Ac-LKRVWKRVFKLLKRYWRQLKKPVR-NH2 (N-terminus and C-terminus assumed) [SAAP-148, reference compound]
Concentrations inducing membrane permeabilization / SYTOX uptake [1]: 0.47 to 3.75 µM | Concentrations causing rapid rise in SYTOX fluorescence, S. aureus ([2]; RPMI, 1 μM SYTOX Green, 90 min, 37 °C): 0.23 to 1.88 µM | E. cloacae eradicated at lower concentrations in plasma ([6]; 50% plasma vs RPMI, 18 h): 4 fold | Reduction in activity in plasma after 18 h ([11]; 50% plasma vs RPMI, 18 h, except E. cloacae, A. baumannii, K. pneumoniae): 8 to 16 fold
